Like-named read-outs stand apart in the source and are kept apart here.

Drawing on patent US20230365589A1, “NOVEL AMINE DERIVATIVES” (Sumitomo Pharma Co., Ltd., priority 2020, published 2023), this text covers IC50 for 14 compounds.

Common to all, as to type: biochemical
Test [1] concerns the target T1, DYRK1B (Homo sapiens, UniProt Q9Y463).
T1 construct: purchased Carna Biosciences, Inc. 04-131
Kind of test: Inhibition test on activity of DYRK family, mobility shift assay (MSA): DYRK1B. As to the method: [Inhibition Test on Activity of DYRK Family (DYRK1A, DYRK1B, DYRK2, and DYRK3)]
The kinase activity was measured by mobility shift assay (MSA) method using QuickScout Screening Assist™ MSA (commercially available kit manufactured by Carna Biosciences, Inc.). The substrate of the kinase reaction used was an FITC-labeled DYRKtide peptide included in the kit. An assay buffer [20 mM HEPES, 0.01% Triton X-100™, 2 mM dithiothreitol, pH 7.5]was used to create a substrate mixture solution with a substrate (4 μM), MgCl2(20 mM), and ATP (DYRK1A: 100 μM; DYRK1B: 200 μM; DYRK2: 40 μM; and DYRK3: 20 μM). In addition, kinases (DYRK1A: manufactured by Carna Biosciences, Inc., Cat. No. 04-130; DYRK1B: manufactured by Carna Biosciences, Inc., Cat. No. 04-131; DYRK2; manufactured by Carna Biosciences, Inc., Cat. No. 04-132; and DYRK3; manufactured by Carna Biosciences, Inc., Cat. No. 04-133) were diluted with the assay buffer to prepare enzyme solutions (DYRK1A: 0.2 ng/μL; DYRK1B: 0.08 ng/μL; DYRK2: 0.04 ng/μL; and DYRK3: 0.25 ng/μL). The 10 mM solution of the test compound in DMSO was further diluted with DMSO to 10 levels of the concentration (0.00003 mM, 0.0001 mM, 0.0003 mM, 0.001 mM, 0.003 mM, 0.01 mM, 0.03 mM, 0.1 mM, 0.3 mM, and 1 mM), each of which was subjected to 25-fold dilution with the assay buffer to obtain a drug solution (4% DMSO solution). 5 μL of the drug solution or a control solution (4% DMSO-assay buffer), 5 μL of the substrate mixture solution, and 10 μL of the enzyme solution were mixed in the wells of a polypropylene 384-well plate and allowed to react at room temperature for 1 hour, and then the reaction was quenched by adding 60 μL of the termination buffer included in the kit. Subsequently, the quantities of the substrates (S) and the phosphorylated substrate (P) in the reaction solution were measured using LabChip EZ Reader II system (manufactured by Caliper Life Sciences) according to the protocol of the assay kit.
The heights of the peaks of the “substrate” and the “phosphorylated substrate” were expressed as S and P, respectively, and a blank containing the assay buffer instead of the enzyme solution was also measured.
The inhibition rate (%) of the test compound was calculated according to the following equation:
Inhibition rate (%)=(1−(C−A)/(B−A))×100 • wherein, A, B, and C represent P/(P+S) of the blank well, P/(P+S) of the control solution well, and P/(P+S) of the compound-containing well, respectively.
The IC50 value was calculated via a regression analysis of the inhibition rate and the test compound concentration (logarithmic value).
The inhibiting activities of representative compounds of the present invention are shown against DYRK1A, DYRK1B, DYRK2, and DYRK3 in Tables.

The target of test [2] is T2, DYRK3 (Homo sapiens, UniProt O43781).
T2 construct: purchased Carna Biosciences, Inc. 04-133
T2 sequence (O43781 1-568 isoform O43781-2): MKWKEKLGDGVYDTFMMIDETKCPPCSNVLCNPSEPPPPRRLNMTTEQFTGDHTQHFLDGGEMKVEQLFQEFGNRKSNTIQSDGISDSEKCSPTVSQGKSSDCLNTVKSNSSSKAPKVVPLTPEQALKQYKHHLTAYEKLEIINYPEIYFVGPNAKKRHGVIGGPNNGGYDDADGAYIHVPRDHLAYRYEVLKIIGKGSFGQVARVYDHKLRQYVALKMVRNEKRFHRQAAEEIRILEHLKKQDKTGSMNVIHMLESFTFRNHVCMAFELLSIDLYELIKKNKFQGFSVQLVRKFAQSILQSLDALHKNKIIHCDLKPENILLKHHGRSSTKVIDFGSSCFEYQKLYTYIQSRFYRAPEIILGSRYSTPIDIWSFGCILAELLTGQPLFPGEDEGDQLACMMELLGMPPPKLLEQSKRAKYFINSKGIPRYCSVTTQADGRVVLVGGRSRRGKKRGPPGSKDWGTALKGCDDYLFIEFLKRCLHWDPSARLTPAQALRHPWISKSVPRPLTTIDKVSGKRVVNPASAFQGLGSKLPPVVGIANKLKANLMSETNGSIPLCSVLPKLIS
Put plainly: Inhibition test on activity of DYRK family, mobility shift assay (MSA): DYRK3. The gist of the method:
(§1)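 Reactions ran 1 h at room temperature in HEPES buffer pH 7.5 with FITC-DYRKtide as substrate. ATP in the substrate mix was 100 µM for DYRK1A, 200 µM for DYRK1B, 40 µM for DYRK2 and 20 µM for DYRK3. Phosphorylated and unphosphorylated peptide were separated on a LabChip, and IC50 was regressed on log dose.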

Test [3] deals with T3, DYRK1A (Homo sapiens, UniProt Q13627).
T3 construct: purchased Carna Biosciences, Inc. 04-130
Kind of test: Inhibition test on activity of DYRK family, mobility shift assay (MSA): DYRK1A. The gist of the method:
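IC50 derived by regressing inhibition rate on log compound concentration, using P/(P+S) peak ratios from electrophoretic separation. DYRK1A enzyme solution 0.2 ng/μL, substrate mix with 4 μM FITC-DYRKtide and 100 μM ATP, pH 7.5 HEPES; reaction run 1 h at room temperature.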

For test [4], the target named is T4, DYRK2 (Homo sapiens, UniProt Q92630).
T4 construct: purchased Carna Biosciences, Inc. 04-132
T4 sequence (Q92630 74-601 limits assumed): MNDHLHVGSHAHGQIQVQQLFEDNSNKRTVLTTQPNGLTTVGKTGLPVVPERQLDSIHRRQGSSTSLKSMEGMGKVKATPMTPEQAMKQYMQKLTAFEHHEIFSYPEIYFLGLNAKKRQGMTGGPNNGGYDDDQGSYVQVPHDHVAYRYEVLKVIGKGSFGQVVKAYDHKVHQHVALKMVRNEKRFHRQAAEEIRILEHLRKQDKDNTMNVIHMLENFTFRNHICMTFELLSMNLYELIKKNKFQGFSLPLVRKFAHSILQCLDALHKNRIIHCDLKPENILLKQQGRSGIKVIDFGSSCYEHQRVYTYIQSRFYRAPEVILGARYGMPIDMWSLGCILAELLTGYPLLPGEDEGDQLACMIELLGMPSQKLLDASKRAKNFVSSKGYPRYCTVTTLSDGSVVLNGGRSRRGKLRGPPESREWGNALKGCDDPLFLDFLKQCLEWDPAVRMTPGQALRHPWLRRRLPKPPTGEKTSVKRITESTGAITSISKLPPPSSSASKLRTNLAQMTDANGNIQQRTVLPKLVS
Put plainly: Inhibition test on activity of DYRK family, mobility shift assay (MSA): DYRK2. The method, boiled down:
as §1

[5] abbreviates: MSA, FITC-labeled DYRKtide peptide, ATP 200 μM, read-out: Inhibitory activity DYRK 1B (IC50 class).
Where [6] appears, read: MSA, FITC-labeled DYRKtide peptide, ATP 20 μM, read-out: Inhibitory activity DYRK 3 (IC50 class).
Setting [7] is: MSA, FITC-labeled DYRKtide peptide, ATP 100 μM, read-out: Inhibitory activity DYRK 1A (IC50 class).
Setting [8] is: MSA, FITC-labeled DYRKtide peptide, ATP 40 μM, read-out: Inhibitory activity DYRK 2 (IC50 class).

T1 sequence (Q9Y463 whole entry): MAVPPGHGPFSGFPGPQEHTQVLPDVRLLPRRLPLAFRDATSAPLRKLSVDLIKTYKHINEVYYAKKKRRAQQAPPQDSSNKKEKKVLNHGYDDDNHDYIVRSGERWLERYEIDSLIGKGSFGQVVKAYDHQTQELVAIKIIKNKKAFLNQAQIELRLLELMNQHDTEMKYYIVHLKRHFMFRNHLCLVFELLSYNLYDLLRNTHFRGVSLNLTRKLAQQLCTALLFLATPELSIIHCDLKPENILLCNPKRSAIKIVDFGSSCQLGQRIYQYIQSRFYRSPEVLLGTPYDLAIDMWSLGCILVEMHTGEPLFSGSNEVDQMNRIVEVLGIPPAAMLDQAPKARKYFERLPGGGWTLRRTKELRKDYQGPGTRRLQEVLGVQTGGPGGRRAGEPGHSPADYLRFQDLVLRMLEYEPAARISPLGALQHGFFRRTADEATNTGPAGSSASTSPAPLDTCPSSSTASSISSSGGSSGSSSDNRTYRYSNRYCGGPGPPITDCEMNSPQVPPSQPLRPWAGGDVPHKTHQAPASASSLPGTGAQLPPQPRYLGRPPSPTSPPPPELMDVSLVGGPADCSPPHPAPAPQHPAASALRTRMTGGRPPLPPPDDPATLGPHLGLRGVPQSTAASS

In the case of `N#CCN1CC[C@@H]2NC(=O)N(c3nc4c5c(ccc4s3)OCC5)[C@@H]2C1` (racemic) [Example 100, rac-[(3aR,7aS)-3-(7,8-dihydrofuro[3,2-e][1,3]benzothiazol-2-yl)-2-oxooctahydro-5H-imidazo[4,5-c]pyridin-5-yl]acetonitrile], the IC50 in test [1] (read-out: Inhibitory activity DYRK 1B) is 0.01 to 0.1 µM; in test [2] (read-out: Inhibitory activity DYRK 3), not below 1 µM; in test [3] (read-out: Inhibitory activity DYRK 1A) it was less than 0.01 µM; in test [4] (read-out: Inhibitory activity DYRK 2), not below 1 µM.

For `CN1CC[C@@H]2NC(=O)N(c3nc4c5c(ccc4s3)OCC5)[C@@H]2C1` (relative stereo) [Example 7, cis-3-(7,8-Dihydrofuro[3,2-e][1,3]benzothiazol-2-yl)-5-methyloctahydro-2H-imidazo[4,5-c]pyridin-2-one], the IC50 was 0.01 to 0.1 µM in test [1] (setting [5]), not below 1 µM in test [2] (setting [6]), 0.01 to 0.1 µM in test [3] (setting [7]) and not below 1 µM in test [4] (setting [8]).

For the compound `COCCN1CC[C@@H]2NC(=O)N(c3nc4c5c(ccc4s3)OCC5)[C@@H]2C1` (relative stereo) [Example 8, cis-3-(7,8-Dihydrofuro[3,2-e][1,3]benzothiazol-2-yl)-5-(2-methoxyethyl)octahydro-2H-imidazo[4,5-c]pyridin-2-one], the IC50 in test [1] (setting [5]) was 0.01 to 0.1 µM; in test [2] (setting [6]), not below 1 µM; in test [3] (setting [7]), 0.01 to 0.1 µM; in test [4] (setting [8]) it was not below 1 µM.

As to `CN1CC[C@@H]2[C@H](C1)NC(=O)N2c1nc2c3c(ccc2s1)OCC3` (relative stereo) [Example 9, cis-1-(7,8-dihydrofuro[3,2-e][1,3]benzothiazol-2-yl)-5-methyloctahydro-2H-imidazo[4,5-c]pyridin-2-one], the IC50 in test [1] (setting [5]) fell in the range of 0.01 to 0.1 µM; in test [2] (setting [6]), 0.1 to 1 µM; in test [3] (setting [7]), 0.01 to 0.1 µM; in test [4] (setting [8]), 0.1 to 1 µM.

On to `CCN1CC[C@H]2NC(=O)N(c3nc4c5c(ccc4s3)OCC5)[C@H]2C1` (relative stereo) [Example 11, cis-3-(7,8-dihydrofuro[3,2-e][1,3]benzothiazol-2-yl)-5-ethyloctahydro-2H-imidazo[4,5-c]pyridin-2-one], for which the IC50 was 0.01 to 0.1 µM in test [1] (setting [5]), not below 1 µM in test [2] (setting [6]), 0.01 to 0.1 µM in test [3] (setting [7]) and not below 1 µM in test [4] (setting [8]).

Turning to `CN1C[C@H]2NC(=O)N(c3nc4c5c(ccc4s3)OCC5)[C@H]2C1` (relative stereo) [Example 14, cis-1-(7,8-dihydrofuro[3,2-e][1,3]benzothiazol-2-yl)-5-methylhexahydropyrrolo[3,4-d]imidazol-2(1H)-one], the IC50 in test [1] (setting [5]) was 0.01 to 0.1 µM; in test [2] (setting [6]), 0.01 to 0.1 µM; in test [3] (setting [7]), 0.01 to 0.1 µM; in test [4] (setting [8]), 0.1 to 1 µM.

Take `C#C[C@H]1C[C@@H]2[C@H](CO1)NC(=O)N2c1nc2c3c(ccc2s1)OCC3` [Example 149, (3aR,6R,7aR)-1-(7,8-dihydrofuro[3,2-e][1,3]benzothiazol-2-yl)-6-ethynylhexahydropyrano[3,4-d]imidazol-2(3H)-one]: the values for the IC50 in test [2] (setting [6]), in test [3] (setting [7]) and in test [4] (setting [8]) were 0.1 to 1 µM, less than 0.01 µM and not below 1 µM, respectively.

In the case of `O=C1N[C@H]2COC(O)C[C@H]2N1c1nc2c3c(ccc2s1)OCC3` (stereo partly drawn) [Example 150, (3aR,7aR)-1-(7,8-Dihydrofuro[3,2-e][1,3]benzothiazol-2-yl)-6-hydroxyhexahydropyrano[3,4-d]imidazol-2(3H)-one], the IC50 in test [2] (setting [6]) fell in the range of 0.1 to 1 µM; in test [3] (setting [7]) it was 0.01 to 0.1 µM; in test [4] (setting [8]), 0.1 to 1 µM.

For `O=C1N[C@H]2COC(F)C[C@H]2N1c1nc2c3c(ccc2s1)OCC3` (stereo partly drawn) [Example 151, (3aR,7aR)-1-(7,8-Dihydrofuro[3,2-e][1,3]benzothiazol-2-yl)-6-fluorohexahydropyrano[3,4-d]imidazol-2(3H)-one], the figures for the IC50 in test [2] (setting [6]), in test [3] (setting [7]) and in test [4] (setting [8]) were 0.01 to 0.1 µM, less than 0.01 µM and 0.1 to 1 µM, respectively.

On to `O=C1C[C@@H]2[C@H](CO1)NC(=O)N2c1nc2c3c(ccc2s1)OCC3` [Example 152], for which the IC50 in test [2] (setting [6]) is 0.01 to 0.1 µM; in test [3] (setting [7]), less than 0.01 µM; in test [4] (setting [8]), 0.01 to 0.1 µM.

`O=C1N[C@@H]2[C@@H](CO[C@@H]2CO)N1c1nc2c3c(ccc2s1)OCC3` [Example 153]: the IC50 in test [2] (setting [6]) was in the range of 0.1 to 1 µM; in test [3] (setting [7]), 0.01 to 0.1 µM; in test [4] (setting [8]) it was 0.1 to 1 µM.

In the case of `O=C1N[C@@H]2CO[C@H](CO)[C@@H]2N1c1nc2c3c(ccc2s1)OCC3` [Example 154], the IC50 in test [2] (setting [6]), in test [3] (setting [7]) and in test [4] (setting [8]) was not below 1 µM in each case.

For the compound `O=C1N[C@H]2CO[C@H](CO)[C@H]2N1c1nc2c3c(ccc2s1)OCC3` [Example 157, (3aR,6S,6aS)-1-(7,8-dihydrofuro[3,2-e][1,3]benzothiazol-2-yl)-6-(hydroxymethyl)tetrahydro-1H-furo[3,4-d]imidazol-2(3H)-one], the IC50 in test [1] (setting [5]) was 0.01 to 0.1 µM; in test [2] (setting [6]) it was 0.1 to 1 µM; in test [4] (setting [8]), 0.1 to 1 µM.

Turning to `N#CC[C@H]1OC[C@@H]2NC(=O)N(c3nc4c5c(ccc4s3)OCC5)[C@@H]21` [Example 162, [(3aS,4R,6aR)-3-(7,8-Dihydrofuro[3,2-e][1,3]benzothiazol-2-yl)-2-oxohexahydro-1H-furo[3,4-d]imidazol-4-yl]acetonitrile], the IC50 is 0.01 to 0.1 µM in test [1] (setting [5]), 0.1 to 1 µM in test [2] (setting [6]) and 0.1 to 1 µM in test [4] (setting [8]).
